Assay results reported in patent US20140161720A1, “TREATMENT OF ANGIOGENIC- OR VASCULAR-ASSOCIATED DISEASES” (THE GENERAL HOSPITAL CORPORATION, priority 2011, published 2014).
“Also recorded” adds a separate entry of the source.

Tests used:
HUVEC [1] = assay: In vitro vascular network formation on matrigel; assay type: cell-based, human
Method: (§1) For F-actin visualization, HUVECs were plated and treated with saline or DAL (10 μM) for three hours. After fixing and permeabilizing these cultured cells, the cells were subsequently stained with phalloidin. […] Existing cordlike structures, when exposed to 10 μM of DAL for 3 hours, were also disrupted. […] HUVEC monolayers were disrupted mechanically with a pipette tip and the migration of cells to “heal” the wound was monitored using microscopy.
(§2) To assess whether DAL affects EC functions, in vitro models of vascular network formation from HUVECs were used. After overnight cultivation in matrigel, HUVECs spontaneously assemble into cord-like structures that resemble vascular networks. […] Since DAL affects actin cytoskeleton assembly, the effect of DAL on cell motility was next assessed. A scratch wound assay was utilized to study HUVEC motility based on the healing rate of a wounded monolayer.

IDO = target: T1, IDO (Homo sapiens, UniProt P14902); assay: IDO activity in HEK 293 cells expressing IDO (kynurenine, spectrophotometric); assay type: cell-based; settings: kynurenine readout, 10-dose threefold dilutions
T1 construct: expressed in transfected cells; host or cells: HEK 293
T1 sequence (P14902 whole entry): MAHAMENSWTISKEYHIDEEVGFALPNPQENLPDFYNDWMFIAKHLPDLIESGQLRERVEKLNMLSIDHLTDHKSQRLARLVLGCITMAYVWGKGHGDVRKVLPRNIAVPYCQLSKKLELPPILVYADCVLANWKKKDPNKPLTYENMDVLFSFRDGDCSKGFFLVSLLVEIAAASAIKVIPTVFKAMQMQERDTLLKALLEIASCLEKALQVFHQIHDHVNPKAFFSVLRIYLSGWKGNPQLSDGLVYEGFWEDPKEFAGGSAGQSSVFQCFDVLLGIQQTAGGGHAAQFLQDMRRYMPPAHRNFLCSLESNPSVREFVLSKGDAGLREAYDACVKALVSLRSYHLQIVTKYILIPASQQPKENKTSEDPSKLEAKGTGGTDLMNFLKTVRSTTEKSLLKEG
Method: The IDO activity was analyzed by the presence of kynurenine with a spectrophotometric assay. DAL was tested in a 10-dose IC50 mode with threefold serial dilutions (0.1 μM, 0.3 μM, 0.9 μM, 2.7 μM, 8.1 μM, 24.3 μM, 72.9 μM, 218.7 μM, 656 μM and 2000 μM). […] DAL binds concurrently with the tryptophan substrate (Trp) and prevents the closure of the binding site lid that is critical for the reaction catalysis.
To determine whether DAL is an immuno-modulator, the effect of DAL on IDO activity was measured. To monitor IDO enzymatic activity, HEK 293 cells were engineered to express IDO and treated with DAL in a 10-dose IC50 mode with threefold serial dilutions. The IDO activity was analyzed by the presence of kynurenine (the first stable catabolite downstream of IDO) with a spectrophotometric assay (Katz et al., 2008; Littlejohn et al., 2000). […] Because DAL inhibits recombinant purified IDO in the enzymatic assay, it is likely that DAL physically interacts with IDO1, forming a complex that represses IDO1 activity. To elucidate a possible structural basis for this inhibition, comparative modeling and molecular docking were used (FIGS. 9A-9D). […] It was therefore assessed that if lid closure may be a critical step for the efficient reaction catalysis by IDO. […]

HUVEC [2] = assay: F-actin visualization and cell shape in HUVECs (phalloidin); assay type: cell-based, human; settings: 10 μM, three hours
Method: as §1
To gain further insight into the anti-vascular effects of DAL and to assess the involvement of DAL in modulating actin assembly, normal human umbilical vein endothelial cells(HUVEC) were plated and treated with 10 μM DAL for three hours. The cells were fixed, permeabilized, and subsequently stained with phalloidin to visualize F-actin (FIG. 5A).

Rac1 mRNA = Rac1 mRNA expression by quantitative PCR; assay type: cell-based
[3] = tested on: zebrafish caudal fin regenerating vessels; assay: Caudal fin amputation, blood vessel regeneration; assay type: in vivo
Method: For the regeneration experiments, caudal fins of zebrafish were amputated at approximately the 50% proximal-distal level (21). The amputated fish were kept in individual 250-ml fish tanks, and at least five fish were used in each group. Staging for normal blood vessel regeneration was carried out at 25° C. with TG(fli1:EGFP)y1 fish, with the same fin ray and vessels of each fish was photographed at different time intervals during the course of the time-lapse study.
To examine whether DAL has a similar antivascular effect on neovasculature in adult zebrafish, neovascularization was induced by amputating the caudal fin at the ˜50% proximal-distal level and fin rays and vessels were imaged from each fish over time. In control zebrafish caudal fins, amputated blood vessels healed their ends by 24 h post-amputation and then reconnected arteries and veins through anastomosis, with blood flow resuming at wound sites by 48 h after amputation (FIG. 2B).

HUVEC [4] = assay: Scratch wound-healing motility assay; assay type: cell-based, human; settings: HUVEC monolayer, DAL 5 μM, 24 hours after wounding
Method: as §1, §2

recombinant purified IDO = recombinant purified IDO (Homo sapiens, UniProt P14902); assay: Enzymatic assay with recombinant purified IDO; assay type: biochemical
Sequence of recombinant purified IDO (P14902 whole entry): as above
Method: To determine whether DAL is an immuno-modulator, the effect of DAL on IDO activity was measured. To monitor IDO enzymatic activity, HEK 293 cells were engineered to express IDO and treated with DAL in a 10-dose IC50 mode with threefold serial dilutions. The IDO activity was analyzed by the presence of kynurenine (the first stable catabolite downstream of IDO) with a spectrophotometric assay (Katz et al., 2008; Littlejohn et al., 2000). […] Because DAL inhibits recombinant purified IDO in the enzymatic assay, it is likely that DAL physically interacts with IDO1, forming a complex that represses IDO1 activity. To elucidate a possible structural basis for this inhibition, comparative modeling and molecular docking were used (FIGS. 9A-9D). […] These residues are disordered in all existing IDO structures (Thackray et al., 2008); however, in the tryptophan-bound bacterial TDO structure, the corresponding loop is well-ordered and forms a “lid” on the binding pocket. Similar to human IDO1, bacterial TDO is a heme enzyme catalyzing the conversion of tryptophan into N-formyl-kynurenine. The binding site residues are strongly conserved between the two enzymes: in particular, the lid sequences share the common motif [K/R]GTGG[T/S]. It was therefore assessed that if lid closure may be a critical step for the efficient reaction catalysis by IDO. […]

CC1(C)C=CC2=C(O1)C(=O)c1ccccc1C2=O [DAL, dehydro-alpha-lapachone]
effect on existing cordlike networks (HUVEC [1]; 10 μM for 3 hours): complete reorganization of existing networks; also recorded: disrupted
HUVEC network formation on matrigel (HUVEC [1]; after 24 hours / overnight cultivation): blocks HUVEC network formation; also recorded: disjoined networks
IC50 (IDO): ~300 nM
cell size and shape (HUVEC [2]): smaller than untreated control cells and had a rounded shape
F-actin organization (HUVEC [2]; phalloidin): actin present only as small fibers and spots throughout the cells or accumulated close to the nuclei
expression levels of Rac1 mRNA (Rac1 mRNA): did not change
anastomotic bridges at the amputation plane ([3]; 9 days after amputation): did not find such bridges
anastomosis and plexus formation of regenerating vessels ([3]; caudal fin after amputation): defects in anastomosis and plexus formation
wound healing / cell motility (HUVEC [4]): did not move and failed to close the wound; also recorded: slowed healing
inhibition of recombinant purified IDO (recombinant purified IDO): inhibits
